From patent US20220340597A1, “HEXAHYDRO-1H-PYRAZINO[1,2-A]PYRAZINE COMPOUNDS FOR THE TREATMENT OF AUTOIMMUNE DISEASE” (Hoffmann-La Roche Inc., priority 2019, published 2022)

How the values were obtained:
human TLR9 = molecular target: T1, human TLR9 (Homo sapiens, UniProt Q9NR96); experiment: HEK293-Blue-hTLR-9 cells assay; assay type: cell-based; settings: HEK293-Blue-hTLR9 cells, ODN2006 stimulation, 20 hrs, SEAP reporter; read-out: HEK/hTLR9 IC50
T1 construct: host or cells: HEK293 (HEK-Blue hTLR9)
T1 sequence (Q9NR96 26-1032): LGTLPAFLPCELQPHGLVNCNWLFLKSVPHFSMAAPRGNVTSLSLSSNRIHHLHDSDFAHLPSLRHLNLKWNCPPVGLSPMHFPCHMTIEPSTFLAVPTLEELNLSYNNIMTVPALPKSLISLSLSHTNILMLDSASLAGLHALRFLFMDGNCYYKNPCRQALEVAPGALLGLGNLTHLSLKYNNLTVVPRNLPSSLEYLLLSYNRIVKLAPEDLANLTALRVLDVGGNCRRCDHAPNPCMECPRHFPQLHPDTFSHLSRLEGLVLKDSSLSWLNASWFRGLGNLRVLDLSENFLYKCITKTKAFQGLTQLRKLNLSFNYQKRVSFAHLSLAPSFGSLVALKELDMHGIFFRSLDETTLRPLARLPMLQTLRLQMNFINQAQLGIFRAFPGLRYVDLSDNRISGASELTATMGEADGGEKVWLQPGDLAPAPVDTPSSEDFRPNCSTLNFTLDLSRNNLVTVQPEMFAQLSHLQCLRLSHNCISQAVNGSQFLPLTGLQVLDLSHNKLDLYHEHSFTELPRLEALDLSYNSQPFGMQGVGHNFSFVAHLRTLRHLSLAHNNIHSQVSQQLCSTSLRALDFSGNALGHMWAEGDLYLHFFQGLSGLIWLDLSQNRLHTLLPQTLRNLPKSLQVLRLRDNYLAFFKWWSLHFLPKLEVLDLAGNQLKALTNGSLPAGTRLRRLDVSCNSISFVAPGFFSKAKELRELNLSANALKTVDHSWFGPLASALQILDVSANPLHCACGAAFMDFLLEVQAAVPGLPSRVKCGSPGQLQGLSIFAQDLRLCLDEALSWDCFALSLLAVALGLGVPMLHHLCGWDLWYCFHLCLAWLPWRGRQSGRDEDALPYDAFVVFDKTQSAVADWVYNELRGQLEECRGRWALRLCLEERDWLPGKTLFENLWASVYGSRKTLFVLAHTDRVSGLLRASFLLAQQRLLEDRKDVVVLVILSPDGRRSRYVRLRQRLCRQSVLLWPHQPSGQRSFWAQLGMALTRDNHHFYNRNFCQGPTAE

human TLR8 = molecular target: T2, human TLR8 (Homo sapiens, UniProt Q9NR97); experiment: HEK293-Blue-hTLR-8 cells assay
T2 sequence (Q9NR97 27-1041): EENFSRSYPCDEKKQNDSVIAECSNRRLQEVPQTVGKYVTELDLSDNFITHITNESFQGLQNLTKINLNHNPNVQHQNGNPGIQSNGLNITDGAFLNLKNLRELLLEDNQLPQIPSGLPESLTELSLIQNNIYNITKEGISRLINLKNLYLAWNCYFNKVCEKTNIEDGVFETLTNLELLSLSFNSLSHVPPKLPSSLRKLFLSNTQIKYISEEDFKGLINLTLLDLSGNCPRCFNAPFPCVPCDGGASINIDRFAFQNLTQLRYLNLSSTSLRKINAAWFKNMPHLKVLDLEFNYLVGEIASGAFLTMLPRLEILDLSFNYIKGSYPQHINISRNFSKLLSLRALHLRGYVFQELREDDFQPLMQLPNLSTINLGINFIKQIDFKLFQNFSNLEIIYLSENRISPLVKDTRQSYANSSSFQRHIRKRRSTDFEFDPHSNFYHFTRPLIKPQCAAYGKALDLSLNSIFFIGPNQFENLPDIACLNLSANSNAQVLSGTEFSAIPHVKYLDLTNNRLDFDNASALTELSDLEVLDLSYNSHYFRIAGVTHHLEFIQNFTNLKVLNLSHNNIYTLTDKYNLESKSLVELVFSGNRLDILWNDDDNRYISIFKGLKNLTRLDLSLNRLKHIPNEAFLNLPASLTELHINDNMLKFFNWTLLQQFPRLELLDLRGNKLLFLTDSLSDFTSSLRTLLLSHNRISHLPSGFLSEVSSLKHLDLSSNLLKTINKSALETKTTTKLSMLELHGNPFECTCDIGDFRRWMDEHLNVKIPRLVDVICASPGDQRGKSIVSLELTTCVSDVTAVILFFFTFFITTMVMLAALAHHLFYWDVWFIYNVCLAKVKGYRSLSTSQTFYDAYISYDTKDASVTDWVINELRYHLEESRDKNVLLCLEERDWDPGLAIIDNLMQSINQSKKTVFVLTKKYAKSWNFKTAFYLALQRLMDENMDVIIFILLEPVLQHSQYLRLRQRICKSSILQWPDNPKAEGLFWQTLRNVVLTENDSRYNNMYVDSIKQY
Description: The following tests were carried out in order to determine the activity of the compounds of formula (I) and (Ia) in HEK293-Blue-hTLR-7/8/9 cells assay.
HEK293-Blue-hTLR-8 Cells Assay:
A stable HEK293-Blue-hTLR-8 cell line was purchased from InvivoGen (Cat. #: hkb-htlr8, San Diego, Calif., USA). These cells were originally designed for studying the stimulation of human TLR8 by monitoring the activation of NF-κB. A SEAP (secreted embryonic alkaline phosphatase) reporter gene was placed under the control of the IFN-β minimal promoter fused to five NF-κB and AP-1-binding sites. The SEAP was induced by activating NF-κB and AP-1 via stimulating HEK-Blue hTLR8 cells with TLR8 ligands. Therefore, the reporter expression was declined by TLR8 antagonist under the stimulation of a ligand, such as R848, for incubation of 20 hrs. The cell culture supernatant SEAP reporter activity was determined using QUANTI-Blue™ kit (Cat. #: rep-qb1, Invivogen, San Diego, Calif., USA) at a wavelength of 640 nm, a detection medium that turns purple or blue in the presence of alkaline phosphatase.

Row | Compound | IC50 (human TLR9) [nM] | IC50 (human TLR8) [nM]
1 | [2H]c1ccc2c(N3C[C@@H]4CN(Cc5nc(N6CCNCC6)ccc5C)CCN4[C@H](C)C3)ccc(C#N)c2n1 [Example 88, 5-[(4R,9aS)-4-methyl-8-[(3-methyl-6-piperazin-1-yl-2-pyridyl)methyl]-3,4,6,7,9,9a-hexahydro-1H-pyrazino[1,2-a]pyrazin-2-yl]-2-deuterio-quinoline-8-carbonitrile] | 47 | 10
2 | [2H]c1ccc2c(N3C[C@@H]4CN(Cc5ccc(N6CC7CC(C6)N7)nc5C)CCN4[C@H](C)C3)ccc(C#N)c2n1 [Example 90, 5-[(4R,9aS)-8-[[6-(3,6-diazabicyclo[3.1.1]heptan-3-yl)-2-methyl-3-pyridyl]methyl]-4-methyl-3,4,6,7,9,9a-hexahydro-1H-pyrazino[1,2-a]pyrazin-2-yl]-2-deuterio-quinoline-8-carbonitrile] | 33 | 8
3 | Cc1nc(N2CCNC[C@@H]2C)ccc1CN1CCN2[C@@H](C1)CN(c1ccc(C#N)c3ncccc13)C[C@H]2C [Example 85, 5-[(4R,9aS)-4-methyl-8-[[2-methyl-6-[(2S)-2-methylpiperazin-1-yl]-3-pyridyl]methyl]-3,4,6,7,9,9a-hexahydro-1H-pyrazino[1,2-a]pyrazin-2-yl]quinoline-8-carbonitrile] | 97 | 10
4 | [2H]c1ccc2c(N3C[C@@H]4CN(Cc5ccc(N6CC7(CN(C)C7)C6)nc5C)CCN4[C@H](C)C3)ccc(C#N)c2n1 [Example 80, 5-[(4R,9aS)-4-methyl-8-[[2-methyl-6-(6-methyl-2,6-diazaspiro[3.3]heptan-2-yl)-3-pyridyl]methyl]-3,4,6,7,9,9a-hexahydro-1H-pyrazino[1,2-a]pyrazin-2-yl]-2-deuterio-quinoline-8-carbonitrile] | < 32 | 5
5 | [2H]c1ccc2c(N3C[C@@H]4CN(Cc5cnc(N6C[C@@H]7C[C@H]6CN7)cc5C)CCN4[C@H](C)C3)ccc(C#N)c2n1 [Example 94, 5-[(4R,9aS)-8-[[6-[(1S,4S)-2,5-diazabicyclo[2.2.1]heptan-2-yl]-4-methyl-3-pyridyl]methyl]-4-methyl-3,4,6,7,9,9a-hexahydro-1H-pyrazino[1,2-a]pyrazin-2-yl]-2-deuterio-quinoline-8-carbonitrile] | 99 | 8
6 | [2H]c1ccc2c(N3C[C@@H]4CN(Cc5cnc(N6CCNCC6)cc5C)CCN4[C@H](C)C3)ccc(C#N)c2n1 [Example 87, 5-[(4R,9aS)-4-methyl-8-[(4-methyl-6-piperazin-1-yl-3-pyridyl)methyl]-3,4,6,7,9,9a-hexahydro-1H-pyrazino[1,2-a]pyrazin-2-yl]-2-deuterio-quinoline-8-carbonitrile] | 52 | 15
7 | C[C@@H]1CN(c2ccc(C#N)c3ncccc23)C[C@@H]2CN(Cc3ccc4c(c3)CNCC4)CCN21 (relative stereo) [Example 1] | 58 | 10
8 | [2H]c1ccc2c(N3C[C@@H]4CN(Cc5ccc(N[C@H]6CNC[C@H]6F)nc5C)CCN4[C@H](C)C3)ccc(C#N)c2n1 [Example 82, 5-[(4R,9aS)-8-[[6-[[(3S,4R)-4-fluoropyrrolidin-3-yl]amino]-2-methyl-3-pyridyl]methyl]-4-methyl-3,4,6,7,9,9a-hexahydro-JH-pyrazino[1,2-a]pyrazin-2-yl]-2-deuterio-quinoline-8-carbonitrile] | 41 | 3
